Experimental data as given in patent US20040034102A1, “Oral pediatric trimethobenzamide formulations and methods” (King Pharmaceuticals, Inc., priority 2002, published 2004).
Read-outs that look alike come from different tables or passages of the source.

Tests used:
[1] = Safety assessment in the crossover study (adverse events, laboratory tests); type: in vivo, human; for DIARRHEA (treatment emergent AE): test concentration or dose not given here; for ERYTHEMA, PALMAR (treatment emergent AE): test concentration or dose not given here
Source text: Seventy-four healthy, non-smoking, male & female subjects, 18-65 years old were enrolled in this study. A total of 68 subjects completed all the requirements of the protocol. There were no enrollment violations. However, nine of the 74 subjects began the study during the third period of the initial group of subjects. All 74 subjects who received at least one dose of study medication were included in the safety analysis.
This study was a single center, randomized, open-label, 4-way crossover study in healthy subjects. Dosing was administered in the fasted state. Seventy-four (74) subjects were randomized into the study. All seventy-four subjects received one or more doses of study medication and are therefore included in the safety assessment. On Treatment Day 1 of the first treatment period, each subject was randomized to receive one of four possible study treatment sequences. The treatment groups consisted of the four treatments administered sequentially as DCAB, ADBC, BACD or CBDA. These treatments are shown below.
A signed informed consent was obtained from each subject. For screening purposes, the following procedures were required of each subject and were performed by the clinical site within 30 days prior to the study: a complete physical examination including a medical history, vital signs, clinical laboratory safety tests on blood and urine, medications taken prior to and during the study, and a serum pregnancy test for female subjects.
During the treatments, temperature, blood pressure, heart rate and respiratory rate were monitored as a safety measure. A physical examination and clinical laboratory tests were repeated at the completion of the study. Subjects were observed and questioned throughout the study for the occurrence of any adverse events.

[2] = cited from earlier work
[3] = FDA notice; cited from earlier work
[4] = 74 subjects, all 4 treatment periods

**Q.** Which results are given for “N-[2-(dimethylamino)-ethoxy]-3,4,5trimethoxybenzamide hydrochloride [trimethobenzamide hydrochloride]”?
**A.** subjects with decreased red blood cell count at the end of treatment ([1]; 5 percent prior to treatment): 11%; subjects with low hematocrit at the end of treatment ([1]; 8 percent prior to treatment): 34%; adverse events (AEs) experienced, total [1, 4]: 28; treatment emergent AEs [1, 4]: 27; AEs assessed as related to study treatment ([1]; all mild to moderate): 21; hematocrit mean change ([1]; end of treatment vs prior): 2.3%; hemoglobin mean change ([1]; end of treatment vs prior): 0.6 g/dL; red blood cell count mean change ([1]; end of treatment vs prior): 2e+11 L⁻¹; overall safety and tolerability ([1]; in vivo): safe and well tolerated; serious AEs ([1]; in vivo): no serious AEs; subjects with normal hemoglobin prior to treatment who had low hemoglobin at the end of treatment ([1]; no clinical significance): 13%; dizziness ([1]; number of events): 3; neurologic complaints ([1]; number of events): 15; paresthesias ([1]; number of events): 3; headaches ([1]; number of events, in a total of 7 subjects): 8; subjects prematurely withdrawn due to adverse events ([1]; of 6 withdrawn): 4; samples with hyperkalemia ([1]; of the 72 samples drawn at the end of the study, due to hemolyzed specimens): 55; ABDOMINAL PAIN (treatment emergent AE) ([1]; sequence A D B C (N = 20)): 5.0%; CONJUNCTIVITIS (treatment emergent AE) ([1]; sequence A D B C (N = 20)): 5.0%; DIARRHEA (treatment emergent AE) ([1]; sequence A D B C (N = 20)): 0.0%; DIZZINESS (treatment emergent AE) ([1]; sequence A D B C (N = 20)): 15.0%; EDEMA, PALMAR (treatment emergent AE) ([1]; sequence A D B C (N = 20)): 5.0%; ERYTHEMA, EXTERNAL NOSE (treatment emergent AE) ([1]; sequence A D B C (N = 20)): 0.0%; ERYTHEMA, PALMAR (treatment emergent AE) ([1]; sequence A D B C (N = 20)): 5.0%; HEADACHE (treatment emergent AE) ([1]; sequence A D B C (N = 20)): 5.0%; HYPOTONIA (treatment emergent AE) ([1]; sequence A D B C (N = 20)): 0.0%; INJECTION SITE REACTION (treatment emergent AE) ([1]; sequence A D B C (N = 20)): 0.0%; LEG CRAMPS (treatment emergent AE) ([1]; sequence A D B C (N = 20)): 0.0%; NAUSEA (treatment emergent AE) ([1]; sequence A D B C (N = 20)): 5.0%; NAUSEA AND VOMITING (treatment emergent AE) ([1]; sequence A D B C (N = 20)): 5.0%; Number of Subject With At Least one AE ([1]; sequence A D B C (N = 20)): 25.0%; Number of Subject With No AE ([1]; sequence A D B C (N = 20)): 75.0%; PARESTHESIA (treatment emergent AE) ([1]; sequence A D B C (N = 20)): 0.0%; PHARYNGITIS (treatment emergent AE) ([1]; sequence A D B C (N = 20)): 0.0%; RASH (treatment emergent AE) ([1]; sequence A D B C (N = 20)): 0.0%; […] (treatment emergent AE) ([1]; sequence A D B C (N = 20)): 0.0%; ABDOMINAL PAIN (treatment emergent AE) ([1]; sequence B A C D (N = 18)): 0.0%; CONJUNCTIVITIS (treatment emergent AE) ([1]; sequence B A C D (N = 18)): 0.0%; DIARRHEA (treatment emergent AE) ([1]; sequence B A C D (N = 18)): 0.0%; DIZZINESS (treatment emergent AE) ([1]; sequence B A C D (N = 18)): 0.0%; EDEMA, PALMAR (treatment emergent AE) ([1]; sequence B A C D (N = 18)): 0.0%; ERYTHEMA, EXTERNAL NOSE (treatment emergent AE) ([1]; sequence B A C D (N = 18)): 0.0%; ERYTHEMA, PALMAR (treatment emergent AE) ([1]; sequence B A C D (N = 18)): 0.0%; HEADACHE (treatment emergent AE) ([1]; sequence B A C D (N = 18)): 0.0%; HYPOTONIA (treatment emergent AE) ([1]; sequence B A C D (N = 18)): 0.0%; INJECTION SITE REACTION (treatment emergent AE) ([1]; sequence B A C D (N = 18)): 5.6%; LEG CRAMPS (treatment emergent AE) ([1]; sequence B A C D (N = 18)): 0.0%; NAUSEA (treatment emergent AE) ([1]; sequence B A C D (N = 18)): 0.0%; NAUSEA AND VOMITING (treatment emergent AE) ([1]; sequence B A C D (N = 18)): 0.0%; Number of Subject With At Least one AE ([1]; sequence B A C D (N = 18)): 22.2%; Number of Subject With No AE ([1]; sequence B A C D (N = 18)): 77.8%; PARESTHESIA (treatment emergent AE) ([1]; sequence B A C D (N = 18)): 11.1%; PHARYNGITIS (treatment emergent AE) ([1]; sequence B A C D (N = 18)): 0.0%; RASH (treatment emergent AE) ([1]; sequence B A C D (N = 18)): 5.6%; […] (treatment emergent AE) ([1]; sequence B A C D (N = 18)): 5.6%; ABDOMINAL PAIN (treatment emergent AE) ([1]; sequence C B D A (N = 18)): 0.0%; CONJUNCTIVITIS (treatment emergent AE) ([1]; sequence C B D A (N = 18)): 0.0%; DIARRHEA (treatment emergent AE) ([1]; sequence C B D A (N = 18)): 5.6%; DIZZINESS (treatment emergent AE) ([1]; sequence C B D A (N = 18)): 0.0%; EDEMA, PALMAR (treatment emergent AE) ([1]; sequence C B D A (N = 18)): 0.0%; ERYTHEMA, EXTERNAL NOSE (treatment emergent AE) ([1]; sequence C B D A (N = 18)): 5.6%; ERYTHEMA, PALMAR (treatment emergent AE) ([1]; sequence C B D A (N = 18)): 0.0%; HEADACHE (treatment emergent AE) ([1]; sequence C B D A (N = 18)): 16.7%; HYPOTONIA (treatment emergent AE) ([1]; sequence C B D A (N = 18)): 5.6%; INJECTION SITE REACTION (treatment emergent AE) ([1]; sequence C B D A (N = 18)): 0.0%; LEG CRAMPS (treatment emergent AE) ([1]; sequence C B D A (N = 18)): 0.0%; NAUSEA (treatment emergent AE) ([1]; sequence C B D A (N = 18)): 0.0%; NAUSEA AND VOMITING (treatment emergent AE) ([1]; sequence C B D A (N = 18)): 0.0%; Number of Subject With At Least one AE ([1]; sequence C B D A (N = 18)): 22.2%; Number of Subject With No AE ([1]; sequence C B D A (N = 18)): 77.8%; PARESTHESIA (treatment emergent AE) ([1]; sequence C B D A (N = 18)): 0.0%; PHARYNGITIS (treatment emergent AE) ([1]; sequence C B D A (N = 18)): 0.0%; RASH (treatment emergent AE) ([1]; sequence C B D A (N = 18)): 0.0%; […] (treatment emergent AE) ([1]; sequence C B D A (N = 18)): 0.0%; ABDOMINAL PAIN (treatment emergent AE) ([1]; sequence D C A B (N = 18)): 0.0%; CONJUNCTIVITIS (treatment emergent AE) ([1]; sequence D C A B (N = 18)): 0.0%; DIARRHEA (treatment emergent AE) ([1]; sequence D C A B (N = 18)): 0.0%; DIZZINESS (treatment emergent AE) ([1]; sequence D C A B (N = 18)): 0.0%; EDEMA, PALMAR (treatment emergent AE) ([1]; sequence D C A B (N = 18)): 0.0%; ERYTHEMA, EXTERNAL NOSE (treatment emergent AE) ([1]; sequence D C A B (N = 18)): 0.0%; ERYTHEMA, PALMAR (treatment emergent AE) ([1]; sequence D C A B (N = 18)): 0.0%; HEADACHE (treatment emergent AE) ([1]; sequence D C A B (N = 18)): 16.7%; HYPOTONIA (treatment emergent AE) ([1]; sequence D C A B (N = 18)): 0.0%; INJECTION SITE REACTION (treatment emergent AE) ([1]; sequence D C A B (N = 18)): 0.0%; LEG CRAMPS (treatment emergent AE) ([1]; sequence D C A B (N = 18)): 5.6%; NAUSEA (treatment emergent AE) ([1]; sequence D C A B (N = 18)): 0.0%; NAUSEA AND VOMITING (treatment emergent AE) ([1]; sequence D C A B (N = 18)): 0.0%; Number of Subject With At Least one AE ([1]; sequence D C A B (N = 18)): 27.8%; Number of Subject With No AE ([1]; sequence D C A B (N = 18)): 72.2%; PARESTHESIA (treatment emergent AE) ([1]; sequence D C A B (N = 18)): 5.6%; PHARYNGITIS (treatment emergent AE) ([1]; sequence D C A B (N = 18)): 0.0%; RASH (treatment emergent AE) ([1]; sequence D C A B (N = 18)): 0.0%; […] (treatment emergent AE) ([1]; sequence D C A B (N = 18)): 0.0%; severe AEs ([1]; severe pharyngitis, judged unrelated to study treatment): 1; DURATION ([2]; IM): 2 to 3 h; ONSET ([2]; IM): 15 to 35 min; DURATION ([2]; PO): 3 to 4 h; ONSET ([2]; PO): 10 to 40 min; DURATION ([2]; Rect): 3 to 4 h; ONSET ([2]; Rect): 10 to 40 min; plasma levels of an oral dose of 400 milligrams vs a 200-milligram intramuscular dose [3]: APP[…]; systemic bioavailability of orally administered drug, of the bioavailability of intramuscularly administered drug [3]: about 60%
